Assays:
[1] = hydrophobicity of the aromatic group; source not stated; cited from earlier work
[2] = test system: alkaline phosphatase (ALP); conditions: fff derivatives 8 mM, ALP 1.0 or 0.1 UmL^-1

Compound	logP [1]	enzymatic hydrogelation, times faster than pB as enzyme trigger [2]
c1ccc(-c2ccccc2)cc1 [biphenyl]	3.71	
O=C(O)c1ccc(-c2ccc(OP(=O)(O)O)cc2)cc1 [pBP, phosphohydroxybiphenyl-carboxylic acid]		50–60 times
phosphohydroxynaphthoic acid [pNP]		50–60 times
